Test results from ChEMBL document CHEMBL1201862, “PubChem BioAssay data set” (2004).
Calls of active or inactive are those of the source.

Tests used:
[1] = biological target: T1, Corticotropin-releasing factor receptor 2/Corticotropin-releasing factor-binding protein (Homo sapiens, UniProt P24387+Q13324); assay: activators of CRF receptor 2 with binding protein – uHTS hits, confirmation (AID 602473); assay type: functional; conditions: read-out: EC50_Mean
T1 sequence (Q13324 whole entry): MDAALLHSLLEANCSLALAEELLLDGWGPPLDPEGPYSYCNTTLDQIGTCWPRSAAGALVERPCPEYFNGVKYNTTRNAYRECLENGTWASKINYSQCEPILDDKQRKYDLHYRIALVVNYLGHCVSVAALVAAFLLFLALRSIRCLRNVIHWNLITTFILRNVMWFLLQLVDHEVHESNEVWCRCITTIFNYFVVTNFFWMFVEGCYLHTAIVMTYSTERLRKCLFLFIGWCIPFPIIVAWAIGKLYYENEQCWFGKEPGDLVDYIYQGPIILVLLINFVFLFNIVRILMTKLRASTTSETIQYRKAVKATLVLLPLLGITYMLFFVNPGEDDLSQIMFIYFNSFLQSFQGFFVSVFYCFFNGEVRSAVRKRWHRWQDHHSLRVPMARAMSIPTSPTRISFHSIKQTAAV
T1 sequence (P24387 whole entry): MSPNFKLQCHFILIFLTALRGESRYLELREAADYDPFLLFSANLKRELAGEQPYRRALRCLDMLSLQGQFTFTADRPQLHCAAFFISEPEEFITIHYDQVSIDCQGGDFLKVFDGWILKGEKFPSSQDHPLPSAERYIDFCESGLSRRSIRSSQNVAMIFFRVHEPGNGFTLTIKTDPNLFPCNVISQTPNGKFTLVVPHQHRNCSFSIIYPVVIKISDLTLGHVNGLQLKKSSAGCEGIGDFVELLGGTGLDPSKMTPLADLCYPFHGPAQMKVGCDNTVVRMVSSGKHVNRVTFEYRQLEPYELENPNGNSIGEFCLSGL

[2] = blockers of CRF-binding protein–CRF-R2 complex – cell-based, uHTS hits, 384-well, dose response (AID 651639); assay type: functional, Homo sapiens; conditions: read-out: IC50_Mean
[3] = biological target: T1, Corticotropin-releasing factor receptor 2/Corticotropin-releasing factor-binding protein; assay: Dose Response confirmation of uHTS hits for small molecule antagonists of the CRF-binding protein and CRF-R2 receptor complex.; assay type: functional; conditions: read-out: IC50_Mean
Caspase-3 = biological target: T2, Caspase-3 (Homo sapiens, UniProt P42574); assay type: functional;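 note: Dose-response selectivity test against caspase-3 for candidate inhibitors of sentrin-specific proteases (SENPs)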
T2 sequence (P42574 whole entry): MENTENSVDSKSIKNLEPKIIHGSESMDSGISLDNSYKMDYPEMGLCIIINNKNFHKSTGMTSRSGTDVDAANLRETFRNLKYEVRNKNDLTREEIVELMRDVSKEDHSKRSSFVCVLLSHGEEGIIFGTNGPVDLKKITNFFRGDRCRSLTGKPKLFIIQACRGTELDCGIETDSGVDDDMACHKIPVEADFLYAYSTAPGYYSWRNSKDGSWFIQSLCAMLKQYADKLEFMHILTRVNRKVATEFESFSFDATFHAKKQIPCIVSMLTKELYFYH

[4] = biological target: T3, Sentrin-specific protease 7 (Homo sapiens, UniProt Q9BQF6); assay type: functional;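 note: Luminescence-based dose-response confirmation of ultra-high-throughput screening hits, measuring inhibition of SENP7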
T3 sequence (Q9BQF6 whole entry): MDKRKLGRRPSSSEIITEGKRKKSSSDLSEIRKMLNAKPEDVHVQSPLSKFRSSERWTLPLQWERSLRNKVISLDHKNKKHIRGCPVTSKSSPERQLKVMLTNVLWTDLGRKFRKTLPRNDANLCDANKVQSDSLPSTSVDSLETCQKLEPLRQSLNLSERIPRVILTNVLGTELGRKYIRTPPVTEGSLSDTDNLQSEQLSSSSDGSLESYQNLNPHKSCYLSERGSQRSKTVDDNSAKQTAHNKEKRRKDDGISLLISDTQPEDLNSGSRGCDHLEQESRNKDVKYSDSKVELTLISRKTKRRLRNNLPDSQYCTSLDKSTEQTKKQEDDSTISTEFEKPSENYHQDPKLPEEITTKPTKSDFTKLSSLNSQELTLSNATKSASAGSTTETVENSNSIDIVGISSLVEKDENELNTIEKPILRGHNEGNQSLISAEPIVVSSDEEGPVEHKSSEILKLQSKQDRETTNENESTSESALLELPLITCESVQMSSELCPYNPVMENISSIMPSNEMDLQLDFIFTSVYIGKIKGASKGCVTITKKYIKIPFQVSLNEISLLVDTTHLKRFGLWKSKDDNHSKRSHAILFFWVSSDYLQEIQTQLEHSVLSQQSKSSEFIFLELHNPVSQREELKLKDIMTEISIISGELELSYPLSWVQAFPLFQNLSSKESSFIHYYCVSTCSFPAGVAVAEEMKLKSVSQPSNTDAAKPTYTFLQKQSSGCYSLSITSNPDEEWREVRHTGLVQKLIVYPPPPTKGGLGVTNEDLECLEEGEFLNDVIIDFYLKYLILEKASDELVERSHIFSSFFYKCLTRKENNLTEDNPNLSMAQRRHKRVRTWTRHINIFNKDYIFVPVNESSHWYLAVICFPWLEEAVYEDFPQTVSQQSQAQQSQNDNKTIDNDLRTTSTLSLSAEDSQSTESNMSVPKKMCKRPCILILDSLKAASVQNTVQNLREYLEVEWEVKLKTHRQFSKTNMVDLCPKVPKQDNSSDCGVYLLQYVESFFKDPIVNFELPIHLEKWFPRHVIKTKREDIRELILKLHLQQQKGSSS

[5] = biological target: Mitochondrial peptide methionine sulfoxide reductase (Bos taurus, UniProt P54149); assay: Absorbance-based biochemical high throughput dose response assay for activators of Methionine sulfoxide reductase A (MsrA).; assay type: functional
Mitochondrial peptide methionine sulfoxide reductase, sequence (P54149 whole entry): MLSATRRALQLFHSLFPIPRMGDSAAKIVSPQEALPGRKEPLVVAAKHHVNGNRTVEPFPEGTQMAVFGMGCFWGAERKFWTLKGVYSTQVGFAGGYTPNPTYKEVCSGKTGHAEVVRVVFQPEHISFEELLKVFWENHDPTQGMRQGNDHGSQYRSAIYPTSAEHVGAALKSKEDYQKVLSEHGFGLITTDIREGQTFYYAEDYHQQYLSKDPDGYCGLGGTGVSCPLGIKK

[6] = biological target: T4, Sentrin-specific protease 8 (Homo sapiens, UniProt Q96LD8); assay type: functional;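 note: luminescence read-out of SENP8 inhibition, dose-response confirmation following an ultra-high-throughput screen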
T4 sequence (Q96LD8 whole entry): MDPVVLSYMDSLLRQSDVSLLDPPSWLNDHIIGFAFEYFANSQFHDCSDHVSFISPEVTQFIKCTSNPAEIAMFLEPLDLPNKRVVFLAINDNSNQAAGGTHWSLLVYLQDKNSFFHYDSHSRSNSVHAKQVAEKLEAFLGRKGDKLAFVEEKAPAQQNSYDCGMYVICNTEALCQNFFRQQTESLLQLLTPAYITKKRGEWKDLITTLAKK

[7] = biological target: T5, Sentrin-specific protease 6 (Homo sapiens, UniProt Q9GZR1); assay type: functional;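 note: Luminescence-based dose-response confirmatory assay of SENP6 inhibition, following up an ultra-high-throughput screen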
T5 sequence (Q9GZR1 whole entry): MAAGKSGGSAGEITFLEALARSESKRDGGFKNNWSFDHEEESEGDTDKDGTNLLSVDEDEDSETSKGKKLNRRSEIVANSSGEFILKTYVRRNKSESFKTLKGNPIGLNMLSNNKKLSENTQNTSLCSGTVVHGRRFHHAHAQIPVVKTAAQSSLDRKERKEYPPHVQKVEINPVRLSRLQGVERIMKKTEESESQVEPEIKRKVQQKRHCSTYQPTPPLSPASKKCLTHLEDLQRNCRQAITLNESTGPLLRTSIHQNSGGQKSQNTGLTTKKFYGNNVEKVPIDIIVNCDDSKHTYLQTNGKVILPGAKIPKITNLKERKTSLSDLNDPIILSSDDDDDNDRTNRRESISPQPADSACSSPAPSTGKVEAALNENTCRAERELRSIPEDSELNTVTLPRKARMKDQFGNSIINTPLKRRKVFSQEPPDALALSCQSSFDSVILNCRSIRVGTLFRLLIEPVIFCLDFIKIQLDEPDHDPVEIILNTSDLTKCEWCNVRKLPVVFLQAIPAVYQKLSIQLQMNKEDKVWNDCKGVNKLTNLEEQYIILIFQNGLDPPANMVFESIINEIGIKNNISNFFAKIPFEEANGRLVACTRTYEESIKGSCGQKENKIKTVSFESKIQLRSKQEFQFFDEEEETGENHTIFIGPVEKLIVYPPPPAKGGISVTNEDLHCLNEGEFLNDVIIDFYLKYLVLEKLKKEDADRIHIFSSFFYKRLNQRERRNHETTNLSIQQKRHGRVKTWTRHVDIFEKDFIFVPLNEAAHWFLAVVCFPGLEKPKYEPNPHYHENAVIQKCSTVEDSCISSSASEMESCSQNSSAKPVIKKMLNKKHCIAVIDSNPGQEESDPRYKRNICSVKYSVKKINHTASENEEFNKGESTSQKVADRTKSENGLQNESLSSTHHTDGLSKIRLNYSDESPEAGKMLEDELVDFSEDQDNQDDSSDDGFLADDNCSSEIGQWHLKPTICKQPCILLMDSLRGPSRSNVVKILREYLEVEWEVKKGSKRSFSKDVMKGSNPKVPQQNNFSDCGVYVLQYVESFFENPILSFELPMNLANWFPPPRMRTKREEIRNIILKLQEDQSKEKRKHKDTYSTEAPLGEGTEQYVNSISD

[8] = biological target: T6, ATP-dependent translocase ABCB1 (Homo sapiens, UniProt P08183); assay: P-gp JC-1 efflux blockade concentration-response – Jurkat-DNR cells, flow cytometry, set 2, dose response (AID 504569); assay type: functional; conditions: read-out: EC50_MICROM_;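 note: potency of pump inhibitors that raise cellular JC-1 green fluorescence up to the nicardipine level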
T6 sequence (P08183 whole entry): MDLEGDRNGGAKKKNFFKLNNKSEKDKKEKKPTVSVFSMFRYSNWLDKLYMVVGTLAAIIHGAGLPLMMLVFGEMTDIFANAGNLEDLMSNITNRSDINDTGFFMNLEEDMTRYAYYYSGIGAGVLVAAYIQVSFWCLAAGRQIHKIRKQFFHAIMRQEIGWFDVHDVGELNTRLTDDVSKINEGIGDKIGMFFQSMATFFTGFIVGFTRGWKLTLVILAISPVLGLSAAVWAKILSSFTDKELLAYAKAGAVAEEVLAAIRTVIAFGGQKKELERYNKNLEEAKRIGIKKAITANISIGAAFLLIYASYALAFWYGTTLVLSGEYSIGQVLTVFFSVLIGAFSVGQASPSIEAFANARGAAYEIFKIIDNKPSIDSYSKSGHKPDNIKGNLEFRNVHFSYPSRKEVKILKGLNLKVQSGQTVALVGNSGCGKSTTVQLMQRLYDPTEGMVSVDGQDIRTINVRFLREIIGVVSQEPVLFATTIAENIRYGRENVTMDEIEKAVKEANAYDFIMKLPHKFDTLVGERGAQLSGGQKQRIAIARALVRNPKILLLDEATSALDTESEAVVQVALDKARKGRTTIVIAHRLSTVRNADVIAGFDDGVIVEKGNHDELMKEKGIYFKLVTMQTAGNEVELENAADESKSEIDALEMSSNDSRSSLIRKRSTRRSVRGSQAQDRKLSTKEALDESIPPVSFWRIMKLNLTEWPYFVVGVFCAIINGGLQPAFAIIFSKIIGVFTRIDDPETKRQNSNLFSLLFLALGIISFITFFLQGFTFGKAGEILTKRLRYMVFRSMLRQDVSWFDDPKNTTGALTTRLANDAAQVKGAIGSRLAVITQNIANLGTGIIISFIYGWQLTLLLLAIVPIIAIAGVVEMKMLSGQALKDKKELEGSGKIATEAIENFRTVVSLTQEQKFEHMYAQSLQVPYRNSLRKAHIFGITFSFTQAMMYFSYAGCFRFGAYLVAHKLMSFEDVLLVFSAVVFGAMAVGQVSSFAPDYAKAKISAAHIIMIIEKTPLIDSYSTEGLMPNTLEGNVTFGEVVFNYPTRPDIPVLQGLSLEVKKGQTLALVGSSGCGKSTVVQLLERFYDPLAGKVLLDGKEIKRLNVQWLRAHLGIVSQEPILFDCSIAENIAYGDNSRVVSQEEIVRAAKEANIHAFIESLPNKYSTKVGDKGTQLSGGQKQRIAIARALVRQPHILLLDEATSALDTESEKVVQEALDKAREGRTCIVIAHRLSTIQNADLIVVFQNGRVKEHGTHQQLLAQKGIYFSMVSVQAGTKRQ

[9] = biological target: T6, ATP-dependent translocase ABCB1; assay: inhibition of BCRP-mediated JC-1 efflux – Ig-MXP3 cells, flow cytometry, set 2, dose response (AID 504566); assay type: functional; conditions: read-out: EC50_MICROM_;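 note: flow cytometry median green fluorescence of retained JC-1 dye; potency of efflux pump inhibition measured as rising substrate retention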
[10] = bead-based luminescence quenchers, dual-tagged ARNT – biochemical, AlphaScreen, cherry-pick, artefact control for ARNT-TACC3 interaction inhibitor project, dose response (AID 651705); assay type: functional;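 note: AlphaScreen bead proximity signal that flags compounds interfering with the detection technology; potency reflects signal decrease which marks the compound as an assay artifact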
[11] = biological target: Low molecular weight phosphotyrosine protein phosphatase (Homo sapiens, UniProt P24666); assay type: functional; conditions: read-out: IC50_Mean;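 note: Dose-response confirmation assay measuring inhibition of LMPTP enzyme activity by fluorescence intensity read-out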
Low molecular weight phosphotyrosine protein phosphatase, sequence (P24666 whole entry, the tested form may be a part): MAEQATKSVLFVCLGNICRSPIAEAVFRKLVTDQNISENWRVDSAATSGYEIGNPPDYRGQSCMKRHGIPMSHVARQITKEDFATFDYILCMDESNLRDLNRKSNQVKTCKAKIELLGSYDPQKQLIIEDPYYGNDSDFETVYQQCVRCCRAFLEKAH

[12] = biological target: T7, Carboxy-terminal domain RNA polymerase II polypeptide A small phosphatase 1 (Homo sapiens, UniProt Q9GZU7); assay: CTDSP1 inhibitors, concentration-response, biochemical, absorbance readout, ultra-high-throughput screen actives (AID 540297); assay type: functional
T7 sequence (Q9GZU7 whole entry): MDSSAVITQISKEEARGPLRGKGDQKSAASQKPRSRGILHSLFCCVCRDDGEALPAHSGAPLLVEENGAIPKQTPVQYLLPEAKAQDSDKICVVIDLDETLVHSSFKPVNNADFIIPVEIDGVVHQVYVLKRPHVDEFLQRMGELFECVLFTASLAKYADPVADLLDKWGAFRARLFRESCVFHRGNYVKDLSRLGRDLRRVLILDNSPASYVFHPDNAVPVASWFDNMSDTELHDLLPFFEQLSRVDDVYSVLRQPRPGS

[13] = biological target: T8, Tyrosine-protein phosphatase non-receptor type 22 (Homo sapiens, UniProt Q9Y2R2); assay: PTPN22 enzyme inhibitors – biochemical, fluorescence, LYP catalytic domain, selectivity assay for LMPTP inhibitor project, dose response (AID 652006); assay type: functional; conditions: read-out: IC50_Mean
T8 sequence (Q9Y2R2 whole entry): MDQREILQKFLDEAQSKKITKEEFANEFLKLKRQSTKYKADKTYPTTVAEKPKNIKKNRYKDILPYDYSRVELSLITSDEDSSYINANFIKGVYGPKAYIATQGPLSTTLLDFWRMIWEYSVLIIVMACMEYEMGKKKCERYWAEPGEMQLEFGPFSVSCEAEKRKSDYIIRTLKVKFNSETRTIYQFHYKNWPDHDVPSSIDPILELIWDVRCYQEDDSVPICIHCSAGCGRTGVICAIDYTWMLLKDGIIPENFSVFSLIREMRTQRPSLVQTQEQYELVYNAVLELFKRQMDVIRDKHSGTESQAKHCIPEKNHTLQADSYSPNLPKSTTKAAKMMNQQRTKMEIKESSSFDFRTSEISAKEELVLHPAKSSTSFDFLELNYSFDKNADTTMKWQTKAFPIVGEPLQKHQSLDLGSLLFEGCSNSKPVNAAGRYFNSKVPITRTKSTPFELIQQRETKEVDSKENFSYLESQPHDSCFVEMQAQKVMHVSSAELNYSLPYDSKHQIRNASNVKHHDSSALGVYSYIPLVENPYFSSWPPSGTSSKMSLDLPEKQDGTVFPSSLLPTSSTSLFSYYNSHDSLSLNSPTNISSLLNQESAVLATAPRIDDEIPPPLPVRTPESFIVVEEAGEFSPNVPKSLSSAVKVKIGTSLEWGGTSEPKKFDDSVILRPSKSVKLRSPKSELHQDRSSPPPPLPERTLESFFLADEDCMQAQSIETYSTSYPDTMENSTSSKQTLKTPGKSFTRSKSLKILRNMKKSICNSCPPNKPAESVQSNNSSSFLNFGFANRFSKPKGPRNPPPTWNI

[14] = biological target: Adenosylmethionine-8-amino-7-oxononanoate aminotransferase (Mycobacterium tuberculosis, UniProt P9WQ81); assay: Mycobacterium tuberculosis BioA enzyme inhibitor Measured in Biochemical System Using Plate Reader - 2163-02_Inhibitor_Dose_CherryPick_Activity.; assay type: functional, Mycobacterium tuberculosis UT205
Adenosylmethionine-8-amino-7-oxononanoate aminotransferase, sequence (P9WQ81 whole entry, the tested form may be a part): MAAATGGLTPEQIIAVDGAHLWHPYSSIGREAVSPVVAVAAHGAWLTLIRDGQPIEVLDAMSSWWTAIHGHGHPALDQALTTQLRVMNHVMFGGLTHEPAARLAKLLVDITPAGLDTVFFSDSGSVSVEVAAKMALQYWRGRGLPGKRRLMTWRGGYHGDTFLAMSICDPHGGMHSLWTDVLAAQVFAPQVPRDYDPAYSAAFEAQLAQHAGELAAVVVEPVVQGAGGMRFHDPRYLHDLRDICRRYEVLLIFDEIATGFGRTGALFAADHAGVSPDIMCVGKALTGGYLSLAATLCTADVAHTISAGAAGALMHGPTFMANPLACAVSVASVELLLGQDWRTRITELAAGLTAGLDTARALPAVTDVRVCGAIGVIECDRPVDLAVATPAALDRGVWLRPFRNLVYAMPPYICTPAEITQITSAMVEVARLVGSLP

[15] = biological target: Hepatocyte nuclear factor 4-alpha (Homo sapiens, UniProt P41235); assay type: functional, cell-based;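 note: biochemical luminescence-based dose-response counterscreen measuring inhibition of HNF4 dimerization, run alongside a screen for blockers of ABHD5–perilipin-5 interaction; split luciferase complementation of HNF4 fusion proteins in cell lysate measuring dimerization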
Hepatocyte nuclear factor 4-alpha, sequence (P41235 whole entry, the tested form may be a part): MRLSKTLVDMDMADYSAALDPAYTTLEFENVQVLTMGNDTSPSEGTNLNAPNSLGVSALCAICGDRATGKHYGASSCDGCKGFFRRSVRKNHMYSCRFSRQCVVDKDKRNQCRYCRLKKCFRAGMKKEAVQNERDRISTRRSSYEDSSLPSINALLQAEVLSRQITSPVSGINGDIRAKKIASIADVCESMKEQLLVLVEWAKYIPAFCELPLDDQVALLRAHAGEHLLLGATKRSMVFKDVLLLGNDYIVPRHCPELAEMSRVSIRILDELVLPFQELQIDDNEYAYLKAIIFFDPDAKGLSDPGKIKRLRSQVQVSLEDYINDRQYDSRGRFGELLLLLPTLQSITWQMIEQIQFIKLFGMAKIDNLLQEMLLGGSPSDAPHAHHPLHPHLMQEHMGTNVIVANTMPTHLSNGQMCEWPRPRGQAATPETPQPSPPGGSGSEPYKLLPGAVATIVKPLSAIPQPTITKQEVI

[16] = mammalian cell viability loss – Alamar Blue, dry powder, cytotoxicity control for antifungal single agent project, dose response (AID 602188); assay type: functional, cell-based

## COCCN=C(S)N1CCc2cc(OC)c(OC)cc2C1COc1cc(C)cc(C)c1 (configuration not stated)
[1]
  EC50: > 53 µM (inactive)
[2]
  IC50: > 20 µM (inactive)
[3]
  IC50: 32.1 µM (active)

## O=C(COC(=O)c1ccc([N+](=O)[O-])s1)NCc1ccc(F)cc1
Caspase-3
  IC50: 9.32 µM (active)
[4]
  IC50: 6.18 µM (active)
[5]
  EC50: 27.2 µM (inactive)
[6]
  IC50: 3.72 µM (active)
[7]
  IC50: 3.68 µM (active)

## Cc1ccc(-c2cc3nc(C)cc(N4CCN(C(=O)c5ccoc5)CC4)n3n2)cc1
[8]
  EC50: 5.56 µM (active)
[9]
  EC50: 4.95 µM (active)

## Oc1c(/C=N/CCCn2ccnc2)c(-c2ccccc2)nn1-c1nc2ccccc2s1
[10]
  AC50: 99.5 µM (active)

## NC(=O)Cc1ccc(C(=O)CSc2nnc(-c3ccncc3)n2C2CC2)s1
[11]
  IC50: 21 µM (inactive)
[12]
  IC50: 4.44 µM (active)
[13]
  IC50: 55.6 µM (inactive)

## CCOc1ccc(C(=O)Nc2cc3c(cc2N2CCCC2)n(CC)c(=O)n3CC)cc1OCC
[14]
  AC50: 6.03 µM (active)

## Cc1cccc(C)c1NC(=O)C(c1ccc(-c2ccccc2)cc1)n1c(=O)c(-c2ccco2)nc2ccccc21 (configuration not stated)
[15]
  IC50: 1.34 µM (active)

## Cc1ccc(C(=O)Nc2nc(-c3ccccn3)cs2)cc1
[16]
  AC50: 9.7 µM (active)
